IC50 data for five compounds are collected here from patent US6919349B2, “Spiro compounds and adhesion molecule inhibitors containing the same as the active ingredient” (Toray Industries, Inc., priority 2000, dated 2005).

The target in this assay is VLA-4-IgG chimera protein (Homo sapiens, UniProt P05556+P13612). Nature of the assay: Inhibitory effect against binding between CS-1 peptide and VLA-4-IgG chimera protein. The following applies: binding of VLA-4-IgG chimera protein to immobilized CS-1 peptide conjugate; compound pre-reacted with chimera protein 20 min; 30° C. 3 hours; absorbance 490 nm. How it is done: The inhibitory activity of the compound according to the present invention against the adhesion of VLA-4 may be determined by using an adhesion-measuring system in which the adhesion between VLA-4-expressing cells such as Ramos cells or Jurkat cells and fibronectin or fibronectin fragment such as a peptide containing CS-1 sequence (Gly Pro Glu Ile Leu Asp Val Pro Ser Thr) (hereinafter referred to as “CS-1 peptide”), immobilized on an immunoplate is measured. Alternatively, a binding-measuring system in which the adhesion between VLA-4 protein and fibronectin or fibronectin fragment such as CS-1 peptide, immobilized on an immunoplate may be used. In the present invention, it is preferred to evaluate the inhibitory activity of a compound using a binding-measuring system in which adhesion between a chimera protein of VLA-4-immunoglobulin (VLA-4-IgG chimera protein) and CS-1 peptide (Japanese Patent Application No. H9-234544), but the method is not restricted thereto. The “VLA-4-IgG chimera protein” herein means the heterodimer complex of the chimera protein between α4 of VLA-4 and immunoglobulin (hereinafter referred to as “VLAα4-IgG chimera protein”) and a chimera protein between β1 of VLA-4 and immunoglobulin (hereinafter referred to as “VLAβ1-IgG chimera protein”). As the immunoglobulin, although heavy chain or light chain of IgG, IgM or the like may be used, IgG1 heavy chain is used in the present invention. When testing the inhibitory effect of a compound, it is preferred to mix VLA-4-IgG chimera protein and the test compound previously.
Chain of VLA-4-IgG chimera protein (P13612 with tags, fused parts or gaps limits assumed): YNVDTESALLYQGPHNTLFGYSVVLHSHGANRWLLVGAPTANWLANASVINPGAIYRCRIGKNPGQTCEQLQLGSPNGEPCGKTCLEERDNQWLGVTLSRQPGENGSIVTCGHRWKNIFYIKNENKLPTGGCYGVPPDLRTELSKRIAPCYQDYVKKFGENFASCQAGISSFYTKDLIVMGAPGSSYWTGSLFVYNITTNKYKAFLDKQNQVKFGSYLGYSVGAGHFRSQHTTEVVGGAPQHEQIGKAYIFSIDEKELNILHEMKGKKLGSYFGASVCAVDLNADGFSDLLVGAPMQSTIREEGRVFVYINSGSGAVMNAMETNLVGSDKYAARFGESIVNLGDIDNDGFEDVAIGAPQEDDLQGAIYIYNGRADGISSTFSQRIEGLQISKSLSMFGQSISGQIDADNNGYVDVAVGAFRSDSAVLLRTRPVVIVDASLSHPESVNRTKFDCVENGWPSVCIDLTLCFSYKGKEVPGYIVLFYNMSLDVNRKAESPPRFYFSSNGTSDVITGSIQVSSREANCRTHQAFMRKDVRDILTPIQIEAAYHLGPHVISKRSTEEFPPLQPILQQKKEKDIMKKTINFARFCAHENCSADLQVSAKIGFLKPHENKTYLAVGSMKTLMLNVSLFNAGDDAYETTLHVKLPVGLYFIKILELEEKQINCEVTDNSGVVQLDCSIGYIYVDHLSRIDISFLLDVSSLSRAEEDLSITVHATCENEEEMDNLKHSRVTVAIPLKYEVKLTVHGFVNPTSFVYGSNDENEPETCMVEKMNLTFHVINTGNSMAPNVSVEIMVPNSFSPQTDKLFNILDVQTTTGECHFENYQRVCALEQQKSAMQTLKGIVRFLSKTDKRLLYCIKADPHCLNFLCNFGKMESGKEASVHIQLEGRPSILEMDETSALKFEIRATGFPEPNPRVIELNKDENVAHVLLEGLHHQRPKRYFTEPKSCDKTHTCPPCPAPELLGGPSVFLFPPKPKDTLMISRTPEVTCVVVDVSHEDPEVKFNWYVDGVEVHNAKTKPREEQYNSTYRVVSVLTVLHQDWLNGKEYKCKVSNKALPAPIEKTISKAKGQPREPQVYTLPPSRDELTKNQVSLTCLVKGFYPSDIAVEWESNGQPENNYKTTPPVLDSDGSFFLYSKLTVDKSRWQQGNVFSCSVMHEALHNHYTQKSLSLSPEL
Chain of VLA-4-IgG chimera protein (P05556 with tags, fused parts or gaps limits assumed): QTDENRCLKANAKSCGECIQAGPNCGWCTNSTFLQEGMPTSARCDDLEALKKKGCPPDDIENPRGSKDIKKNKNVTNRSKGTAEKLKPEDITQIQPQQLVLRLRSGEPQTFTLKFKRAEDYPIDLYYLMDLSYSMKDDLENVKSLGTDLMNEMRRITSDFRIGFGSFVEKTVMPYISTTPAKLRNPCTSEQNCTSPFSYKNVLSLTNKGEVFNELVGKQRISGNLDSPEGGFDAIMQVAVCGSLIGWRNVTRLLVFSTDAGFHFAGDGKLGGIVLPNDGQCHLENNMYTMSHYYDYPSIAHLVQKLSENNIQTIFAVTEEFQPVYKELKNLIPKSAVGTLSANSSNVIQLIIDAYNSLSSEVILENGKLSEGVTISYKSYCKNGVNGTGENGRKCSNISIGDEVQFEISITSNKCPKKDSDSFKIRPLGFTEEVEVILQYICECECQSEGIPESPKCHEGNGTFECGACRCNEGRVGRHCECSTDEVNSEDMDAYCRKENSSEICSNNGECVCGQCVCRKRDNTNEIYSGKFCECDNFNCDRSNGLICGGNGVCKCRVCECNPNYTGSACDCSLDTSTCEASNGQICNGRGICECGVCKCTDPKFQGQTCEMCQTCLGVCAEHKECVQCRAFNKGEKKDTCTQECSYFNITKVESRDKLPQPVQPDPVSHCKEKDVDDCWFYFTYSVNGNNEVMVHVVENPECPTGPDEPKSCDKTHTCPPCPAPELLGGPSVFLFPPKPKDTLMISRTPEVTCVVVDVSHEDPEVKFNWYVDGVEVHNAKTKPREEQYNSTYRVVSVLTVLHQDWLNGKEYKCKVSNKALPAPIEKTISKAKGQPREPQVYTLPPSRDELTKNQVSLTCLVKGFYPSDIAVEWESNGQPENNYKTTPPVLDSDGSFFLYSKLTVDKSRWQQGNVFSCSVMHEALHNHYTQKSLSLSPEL
In accordance with the teaching of a report (Humphrise, M. J. et al. J.Bio.Chem.,262,6886-6892(1987)), a conjugate between a peptide (Gys Leu His Gly Pro Glu Glu Ile Leu Asp Val Pro Ser Thr) containing CS-1 sequence and rabbit IgG (Sigma) was prepared. This was diluted with phosphate buffer (hereinafter referred to as “PBS(−)” for short), and the obtained solution was placed in the wells of a 96-well immunoplate (NUNC) in an amount of 100 μl/well, followed by leaving to stand the immunoplate at 4° C. for 16 hours to immobilize the conjugate.
The wells were then washed twice with PBS(−), and 1% BSA solution in PBS, which BSA was heated at 80° C. for 10 minutes, was placed in each well in an amount of 300 μl/well. The immunoplate was left to stand at 4° C. for 3 hours, and then the solution in each well was removed by suction.
Each compound and VLA-4-IgG chimera protein (100 μl) were preliminarily reacted at room temperature for 20 minutes, and then the resulting mixture was allowed to react with the CS-1peptide in each well at 30° C. for 3 hours. Thereafter, non-bound VLA-4-IgG chimera protein was removed by suction, and each well was washed twice with 0.1% BSA-containing TBS buffer (150 mM NaCl, 25 mM Tris-HCl, 1 mM MnCl2, PH7.4). To the bound VLA-4-IgG chimera protein, biotin-labelled anti-human IgG antibody (Vector) as a primary antibody was added, and then avidin-labelled horse radish peroxidase (Sigma) as a secondary antibody was added, thereby allowing the reactions. Then o-phenylenediamine as a substrate was added to color the reaction solution, and the absorbance at 490 nm was measured. From this absorbance, the binding inhibitory activity of each compound was determined.
Consider `COc1cccc(OC)c1C(=O)N[C@@H](CNC(=O)N1CCC2(CC1)C(=O)N(Cc1ccccc1)CN2c1ccccc1)C(=O)O` [Compound 7, 2-((2,6-dimethoxyphenyl)carbonylamino)-3-((2,4,8-triaza-1-oxo-4-phenyl-2-benzylspiro[4.5]dec-8-yl)carbonylamino)propanoic acid], for which the IC50 was 18 nM. That is a double-digit nanomolar value.
For `O=C(O)[C@H](CNC(=O)N1CCC2(CC1)C(=O)N(Cc1ccccc1)CN2c1ccccc1)NC(=O)N1CCC(n2c(=O)[nH]c3ccccc32)CC1` [Compound 31, 2-((4-(2-oxo(3-hydrobenzimidazolyl))piperidyl)carbonylamino)-3-((2,4,8-triaza-1-oxo-4-phenyl-2-benzylspiro[4.5]dec-8-yl)carbonylamino)propanoic acid] the value was 0.98 nM; for `Cc1cccc(C)c1C(=O)N[C@@H](CNC(=O)N1CCC2(CC1)C(=O)N(Cc1ccccc1)CN2c1ccccc1)C(=O)O` [Compound 13, 2-((2,6-dimethylphenyl)carbonylamino)-3-((2,4,8-triaza-1-oxo-4-phenyl-2-benzylspiro[4.5]dec-8-yl)carbonylamino)propanoic acid], 2.9 nM.
In turn, `CC(C)C(=O)NC1(c2ccccc2)CCN(C(=O)N[C@@H](CNC(=O)N2CCC3(CC2)C(=O)N(Cc2ccccc2)CN3c2ccccc2)C(=O)O)CC1` [Compound 27] gave an IC50 of 2.1 nM. The IC50 values of the last two compounds are within 1.5-fold of each other.
In the case of `O=C(N[C@@H](CNC(=O)N1CCC2(CC1)C(=O)NCN2c1ccccc1)C(=O)O)c1c(Cl)cccc1Cl` [Compound 3, 3-((2,4,8-triaza-1-oxo-4-phenylspiro[4.5]dec-8-yl)carbonylamino)-2-((2,6-dichlorophenyl)carbonylamino)propanoic acid] it was 6.1 nM.

Broadly, the IC50 is the concentration that gives 50% inhibition. Low readings indicate greater potency in that assay, high ones weaker potency in that assay.
